pIC50: −log10 of the molar value. Read-outs that look alike come from different tables or passages of the source.
Legend:
[1] = target: human recombinant PDE-4B1 (Homo sapiens, UniProt Q07343); assay: PDE4-B1 assay (Compounds of Formula I), SPA; assay type: biochemical; conditions: for IC50: 4-parameter logistical fit, two technical replicates; for inhibition at 30 µM: relative to Ro 20-1724
Procedure: (§1) 20 mins after addition of human recombinant PDE-4B1 (1.2 IEU) or PDE-4D2 (1.5 IEU), SPA beads were added and incubated at 22° C. for a further 30 mins. [^3H]5′AMP was quantified by a standard scintillation counting method.

[2] = target: T1, human serotonin transporter (Homo sapiens, UniProt P31645); conditions: for inhibition: 10 µM;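 as to all read-outs here: Read-out: uptake of tritium-labelled serotonin, measured by scintillation counting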
Procedure: (§2) Following incubation, [^3H] serotonin uptake was quantified by a standard scintillation counting method.

[3] = target: human recombinant PDE-4D2 (Homo sapiens, UniProt Q08499); assay: PDE4-D2 assay (Compounds of Formula I), SPA; assay type: biochemical; conditions: for IC50: 4-parameter logistical fit, two technical replicates; for inhibition at 30 µM: relative to Ro 20-1724
Procedure: as §1

[4] = target: T1, human serotonin transporter; assay: cell-based
Procedure: as §2

[5] = in vivo; parameters: species or system male C57Bl/6J mice; conditions: male, C57Bl/6J, mouse, ip, 30 mg/kg
Procedure: Groups of 18 male C57Bl/6J mice (weighing between 22.7 and 27.3 g) received a single administration of test compound (30 mg/kg; i.p.) in methylcellulose (0.5% w/v) at a nominal concentration of […].
Three mice from each dose group were subject to cardiac puncture under general anesthesia at 0.25, 0.50, 1.00, 1.50, 2.00 and 4.00 hours post-dose and plasma samples generated for application of standard LC-MS/MS bioanalytical methods.
Quantitation of compound concentration was derived from reference calibration data. Pharmacokinetic data were derived from serial plasma concentrations.

Chain of human recombinant PDE-4B1 (Q07343 whole entry): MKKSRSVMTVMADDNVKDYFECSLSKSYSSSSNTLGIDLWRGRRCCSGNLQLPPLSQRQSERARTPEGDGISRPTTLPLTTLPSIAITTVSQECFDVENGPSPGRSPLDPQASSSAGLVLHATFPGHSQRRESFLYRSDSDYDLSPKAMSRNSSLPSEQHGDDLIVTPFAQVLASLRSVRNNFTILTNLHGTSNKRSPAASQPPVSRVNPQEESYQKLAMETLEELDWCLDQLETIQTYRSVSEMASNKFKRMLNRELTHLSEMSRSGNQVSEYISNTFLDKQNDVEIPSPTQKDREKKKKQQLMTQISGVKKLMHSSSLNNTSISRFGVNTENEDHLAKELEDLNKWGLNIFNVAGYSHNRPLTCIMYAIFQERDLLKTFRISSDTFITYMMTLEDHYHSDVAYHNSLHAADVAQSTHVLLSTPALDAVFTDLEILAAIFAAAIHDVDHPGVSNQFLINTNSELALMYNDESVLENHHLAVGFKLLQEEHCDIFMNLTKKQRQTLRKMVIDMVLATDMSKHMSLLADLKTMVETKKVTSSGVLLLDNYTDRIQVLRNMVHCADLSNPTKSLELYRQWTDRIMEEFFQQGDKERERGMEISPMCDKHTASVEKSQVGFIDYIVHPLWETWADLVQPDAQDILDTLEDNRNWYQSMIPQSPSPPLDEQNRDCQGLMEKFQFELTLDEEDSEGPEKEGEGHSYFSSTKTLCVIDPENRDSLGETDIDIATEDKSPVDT
Chain of human recombinant PDE-4D2 (Q08499 303-809): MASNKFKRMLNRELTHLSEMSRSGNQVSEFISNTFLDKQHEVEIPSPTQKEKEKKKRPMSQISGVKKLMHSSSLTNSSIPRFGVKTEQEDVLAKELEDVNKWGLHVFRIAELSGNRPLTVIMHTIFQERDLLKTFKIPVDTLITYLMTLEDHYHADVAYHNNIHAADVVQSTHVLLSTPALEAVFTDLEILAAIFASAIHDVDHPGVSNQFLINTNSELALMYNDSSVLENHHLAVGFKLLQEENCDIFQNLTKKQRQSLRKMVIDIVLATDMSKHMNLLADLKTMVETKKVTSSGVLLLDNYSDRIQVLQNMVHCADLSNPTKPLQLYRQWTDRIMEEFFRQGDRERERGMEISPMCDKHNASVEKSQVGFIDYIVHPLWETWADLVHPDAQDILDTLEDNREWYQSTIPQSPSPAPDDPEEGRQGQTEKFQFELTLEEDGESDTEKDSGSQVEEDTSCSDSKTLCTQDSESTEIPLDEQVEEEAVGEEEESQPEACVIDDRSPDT
T1 sequence (P31645 whole entry): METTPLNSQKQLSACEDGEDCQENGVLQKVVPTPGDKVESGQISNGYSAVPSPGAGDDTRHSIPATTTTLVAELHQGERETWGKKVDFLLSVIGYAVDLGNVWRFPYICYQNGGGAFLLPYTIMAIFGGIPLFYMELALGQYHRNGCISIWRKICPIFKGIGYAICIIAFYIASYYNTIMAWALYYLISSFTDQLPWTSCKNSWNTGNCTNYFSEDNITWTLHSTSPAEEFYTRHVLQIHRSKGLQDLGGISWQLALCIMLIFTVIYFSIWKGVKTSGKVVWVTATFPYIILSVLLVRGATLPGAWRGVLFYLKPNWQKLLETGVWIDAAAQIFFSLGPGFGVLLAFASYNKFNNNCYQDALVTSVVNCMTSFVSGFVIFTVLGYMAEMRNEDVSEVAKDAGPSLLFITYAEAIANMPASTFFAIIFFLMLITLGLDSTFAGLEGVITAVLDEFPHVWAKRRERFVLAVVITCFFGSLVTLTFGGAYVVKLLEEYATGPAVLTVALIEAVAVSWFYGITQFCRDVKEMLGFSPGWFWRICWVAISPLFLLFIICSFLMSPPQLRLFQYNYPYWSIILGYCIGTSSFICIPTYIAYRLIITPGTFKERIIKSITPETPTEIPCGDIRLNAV

Row | Structure (SMILES) | inhibition at 30 µM [1] | inhibition [2] | inhibition at 30 µM [3] | other results
1 | CCSc1cc([C@@]23CCC(=O)C[C@@H]2N(C)CC3)ccc1OC [Compound 3] | – | – | – | IC50 [1]: 5.2 µM; pIC50 [2]: 8.30; IC50 [3]: 1.3 µM
2 | COc1ccc([C@@]23CCC(=O)C[C@@H]2N(C)CC3)cc1OCC(F)(F)F [Compound 4] | – | – | – | IC50 [1]: 7.1 µM; pIC50 [4]: > 7.00; IC50 [3]: 11.3 µM
3 | COc1ccc([C@@]23CCC(=O)C[C@@H]2N(C)CC3)cc1OCC(F)F [Compound 7] | – | – | – | pIC50 [2]: 7.70
4 | COc1ccc([C@@]23CCC(=O)C[C@@H]2N(C)CC3)cc1O [Compound 10] | – | – | – | IC50 [1]: > 30 µM; pIC50 [2]: 6.52; IC50 [3]: > 30 µM
5 | COc1ccc([C@@]23CCC(=O)C[C@@H]2N(C)CC3)cc1OCc1ccccc1 [Compound 12] | – | – | – | pIC50 [4]: < 5.00
6 | COc1ccc([C@@]23CCC(=O)C[C@@H]2N(C)CC3)cc1OC1CCCCC1 [Compound 14] | 94% | 59% | 97% | –
7 | CCOc1ccc([C@@]23CCC(=O)C[C@@H]2N(C)CC3)cc1O [Compound 16] | -1% | 98% | 3% | –
8 | CCOc1ccc([C@@]23CCC(=O)C[C@@H]2N(C)CC3)cc1SC [Compound 17] | 61% | 99% | 74% | –
9 | CC(C)Oc1ccc([C@@]23CCC(=O)C[C@@H]2N(C)CC3)cc1O [Compound 18] | -4% | 86% | -3% | –
10 | COc1cc([C@@]23CCC(=O)C[C@@H]2N(C)CC3)ccc1OC(C)C [Compound 19] | 1% | 99% | 3% | –
11 | CCCCOc1cc([C@@]23CCC(=O)C[C@@H]2N(C)CC3)ccc1OCC [Compound 20] | 83% | 100% | 92% | –
12 | CC(C)Oc1ccc([C@@]23CCC(=O)C[C@@H]2N(C)CC3)cc1OCC1CC1 [Compound 22] | 38% | 91% | 37% | –
13 | CCOc1ccc([C@@]23CCC(=O)C[C@@H]2N(C)CC3)cc1OC1CCCCC1 [Compound 23] | 88% | 77% | 93% | –
14 | CCOc1ccc([C@@]23CCC(=O)C[C@@H]2N(C)CC3)cc1OCC1CC1 [Compound 24] | – | 91% | – | AUC(0-inf) [5]: 825 ng·h/mL; Cmax [5]: 492 ng/mL; Tmax [5]: 15 min; half-life [5]: 76.8 min; pIC50 [2]: 7.70
15 | CSc1cc([C@@]23CCC(=O)C[C@@H]2N(C)CC3)ccc1OC(C)C [Compound 25] | – | – | – | IC50 [1]: > 30 µM; IC50 [3]: > 30 µM
16 | CC(C)Oc1ccc([C@@]23CCC(=O)C[C@@H]2N(C)CC3)cc1OC1CCCCC1 [Compound 26] | 26% | 81% | 20% | –
17 | CC(C)Oc1ccc([C@@]23CCC(=O)C[C@@H]2N(C)CC3)cc1OC1CCCC1 [Compound 28] | 53% | 98% | 55% | –
18 | CCOc1cc([C@@]23CCC(=O)C[C@@H]2N(C)CC3)ccc1OC(C)C [Compound 29] | 40% | 99% | 32% | –
19 | CCCCOc1cc([C@@]23CCC(=O)C[C@@H]2N(C)CC3)ccc1OC(C)C [Compound 30] | 24% | 95% | 31% | –
20 | CCOc1ccc([C@@]23CCC(=O)C[C@@H]2N(C)CC3)cc1OC [Compound 31] | – | – | – | pIC50 [4]: > 7.00
21 | CN1CC[C@]2(c3ccc(OCC4CC4)c(O)c3)CCC(=O)C[C@H]12 [Compound 33] | – | – | – | IC50 [1]: > 30 µM; pIC50 [2]: 5.68; IC50 [3]: > 30 µM
22 | COc1cc([C@@]23CCC(=O)C[C@@H]2N(C)CC3)ccc1OCC1CC1 [Compound 34] | – | – | – | IC50 [1]: > 30 µM; pIC50 [2]: 6.05; IC50 [3]: > 30 µM
